Patent US6677276B1, “Herbicides for tolerant or resistant oil seed rape cultures” (Aventis CropScience GmbH, priority 1998, dated 2004)
Where a name gives a salt, the structure may show the parent alone.

How the values were obtained:
Oil-seed rape LL = assay: Field trial, crop plant tolerance; format: in vivo, Liberty-Link oil-seed rape; conditions: crop damage
Protocol: Transgenic oil-seed rape plants with resistance to one or more herbicides (A) were grown together with typical weed plants in the open in 2×5 m plots under natural field conditions; alternatively, the weed population established naturally while the oil-seed rape plants grew.
Damage and development of all aerial plant organs was recorded. […] The score values of in each case 4 plots were averaged.

Chenopodium album = assay: Field trial, herbicidal action (Table 5); format: in vivo; conditions: application in the 4-leaf stage, scoring 15 days after application
Protocol: (§1) Transgenic oil-seed rape plants with resistance to one or more herbicides (A) were grown together with typical weed plants in the open in 2×5 m plots under natural field conditions; alternatively, the weed population established naturally while the oil-seed rape plants grew. Treatment with the compositions according to the invention and, for control purposes, with separate application of the active ingredients of the components alone, was carried out under standard conditions with a plot sprayer at an application rate of 200-300 liters of water per hectare in parallel trials in accordance with the scheme of Table 1, i.e. pre-sowing/pre-emergence, post-sowing/-pre-emergence or post-emergence at the early, medium or late stage.
(§2) At 2, 4, 6 and 8 week intervals after application, the herbicidal activity of the active ingredients or active ingredient mixtures were scored visually by comparing the treated plots with untreated control plots. Damage and development of all aerial plant organs was recorded. The scoring was done using a percentage scale (100% activity=all plants dead; 50% activity=50% of the plants and green plant organs dead; 0% activity=no discernible effect=like control plot). The score values of in each case 4 plots were averaged.

Cirsium arvense = assay: Field trial, herbicidal action (Table 5); format: in vivo; conditions: application in the 4-leaf stage, scoring 15 days after application
Protocol: as §1, §2

Datura stramonium = assay: Oil-seed rape field trial, herbicidal action (Table 2); format: in vivo; conditions: application in the 5-leaf stage, scoring 3 weeks after application
Protocol: as §1
[…] Damage and development of all aerial plant organs was recorded. The scoring was done using a percentage scale (100% activity=all plants dead; 50% activity=50% of the plants and green plant organs dead; 0% activity=no discernible effect=like control plot). The score values of in each case 4 plots were averaged.

Galium aparine = assay: Oil-seed rape field trial, herbicidal action (Table 3); format: in vivo; conditions: application in the 4-5 leaf stage, scoring 36 days after application
Protocol: as §1, §2

Matricaria chamomita = assay: Field trial, herbicidal action (Table 4); format: in vivo; conditions: post-emergence application in the 4-leaf stage, scoring 28 days after post-emergence application
Protocol: as §1, §2

CCOc1nc(NC)nc(NC(=O)NS(=O)(=O)c2ccccc2C(=O)OC)n1 [(B2.4), methyl 2-{N-[N-(4-ethyox-6-methylamino-1,3,5-triazin-2-yl)aminocarbonyl]aminosulfonyl}benzoate]
Oil-seed rape LL (Oil-seed rape LL; 15 g of A.S./ha, 4-leaf stage, scoring 15 days after application): 0% | Herbicidal action (%) against Chenopodium album (Chenopodium album; 15 g of A.S./ha): 30% | Herbicidal action (%) against Cirsium arvense (Cirsium arvense; 15 g of A.S./ha): 0%

CP(=O)(O)CCC(N)C(=O)O (stereo not shown) [(A1.2), glufosinate monoammonium salt]
Herbicidal action (%) against Datura stramonium (Datura stramonium; 600 g of A.S./ha): 90% | Herbicidal action (%) against Galium aparine (Galium aparine; 125 g of A.S./ha): 15% | Herbicidal action (%) against Galium aparine (Galium aparine; 250 g of A.S./ha): 41% | Herbicidal action (%) against Galium aparine (Galium aparine; 500 g of A.S./ha): 63% | Oil-seed rape LL (Oil-seed rape LL; 125 g of A.S./ha, 4-5 leaf stage, scoring 36 days after application): 0% | Oil-seed rape LL (Oil-seed rape LL; 230 g of A.S./ha, 4-leaf stage, scoring 15 days after application): 0% | Oil-seed rape LL (Oil-seed rape LL; 250 g of A.S./ha, 4-5 leaf stage, scoring 36 days after application): 0% | Oil-seed rape LL (Oil-seed rape LL; 350 g of A.S./ha, 4-leaf stage, scoring 15 days after application): 0% | Oil-seed rape LL (Oil-seed rape LL; 500 g of A.S./ha, 4-5 leaf stage, scoring 36 days after application): 3% | Herbicidal action % against Matricaria chamomita (Matricaria chamomita; 125 g of A.S./ha): 10% | Herbicidal action % against Matricaria chamomita (Matricaria chamomita; 250 g of A.S./ha): 35% | Herbicidal action % against Matricaria chamomita (Matricaria chamomita; 500 g of A.S./ha): 65% | Herbicidal action (%) against Chenopodium album (Chenopodium album; 230 g of A.S./ha): 90% | Herbicidal action (%) against Cirsium arvense (Cirsium arvense; 230 g of A.S./ha): 85% | Herbicidal action (%) against Cirsium arvense (Cirsium arvense; 350 g of A.S./ha): 97%

CCCCCCCCSC(=O)Oc1cc(Cl)nnc1-c1ccccc1 [(B2.3), O-(6-chloro-3-phenylpyridazin-4-yl) S-octyl thiocarbonate]
Herbicidal action % against Matricaria chamomita (Matricaria chamomita; 600 g of A.S./ha): 60%

O=C(O)c1nc(Cl)ccc1Cl [(B2.2), 3,6-dichloropyridine-2-carboxylic acid]
Oil-seed rape LL (Oil-seed rape LL; 90 g of A.S./ha, 4-leaf stage, scoring 15 days after application): 0% | Herbicidal action (%) against Chenopodium album (Chenopodium album; 90 g of A.S./ha): 50% | Herbicidal action (%) against Cirsium arvense (Cirsium arvense; 90 g of A.S./ha): 85%

Cc1cccc(C)c1N(Cn1cccn1)C(=O)CCl [(B1.1), 2-chloro-N-(2,6-dimethylphenyl)-N-(1H-pyrazol-1-ylmethyl)acetanilide]
Herbicidal action (%) against Datura stramonium (Datura stramonium; 600 g of A.S./ha): 40% | Herbicidal action (%) against Datura stramonium (Datura stramonium; 1200 g of A.S./ha): 93%

Cc1cnc2c(C(=O)O)c(Cl)ccc2c1 [(B2.1), 7-chloro-3-methylquinoline-8-carboxylic acid]
Herbicidal action % against Matricaria chamomita (Matricaria chamomita; 300 g of A.S./ha): 50%
